# Earlier results, collected in publication PMC10413841, “Exploration of Thiourea-Based Scaffolds for the Construction of Bacterial Ureases Inhibitors” (ACS Omega, 2023).
# What was measured:
# [1] = target: purified enzyme from P. mirabilis; parameters: method as in PMID 25699141; conditions: previously reported; read-out: Ki against purified enzyme from P. mirabilis; cited from earlier work
# [2] = target: T1, native S. pasteurii CCM 2056 urease (Sporosarcina pasteurii, UniProt P41020); parameters: method as in PMID 25699141; conditions: previously reported; read-out: Ki against purified enzyme from S. pasteurii; cited from earlier work
# T1 construct: The S. pasteurii CCM 2056 cells were used as the source of a native enzyme; endogenous in cells; host or cells: S. pasteurii CCM 2056 culture; endogenous enzyme purified in house from the sonicated cell extract by five-step chromatography
# [3] = test system: live cells of P. mirabilis PCM 543; parameters: method as in PMID 27550502; conditions: 1 mM acetohydroxamate; remaining ureolysis in P. mirabilis PCM 543; cited from earlier work
# T1 sequence (P41022 whole entry): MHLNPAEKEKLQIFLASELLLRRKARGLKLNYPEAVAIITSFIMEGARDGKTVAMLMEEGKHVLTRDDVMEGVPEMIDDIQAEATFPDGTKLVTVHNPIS
# T1 sequence (P41021 whole entry, further chain): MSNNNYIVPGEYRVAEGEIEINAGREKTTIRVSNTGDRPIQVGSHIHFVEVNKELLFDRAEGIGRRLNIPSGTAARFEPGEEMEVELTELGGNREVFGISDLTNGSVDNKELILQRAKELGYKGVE
# T1 sequence (P41020 whole entry): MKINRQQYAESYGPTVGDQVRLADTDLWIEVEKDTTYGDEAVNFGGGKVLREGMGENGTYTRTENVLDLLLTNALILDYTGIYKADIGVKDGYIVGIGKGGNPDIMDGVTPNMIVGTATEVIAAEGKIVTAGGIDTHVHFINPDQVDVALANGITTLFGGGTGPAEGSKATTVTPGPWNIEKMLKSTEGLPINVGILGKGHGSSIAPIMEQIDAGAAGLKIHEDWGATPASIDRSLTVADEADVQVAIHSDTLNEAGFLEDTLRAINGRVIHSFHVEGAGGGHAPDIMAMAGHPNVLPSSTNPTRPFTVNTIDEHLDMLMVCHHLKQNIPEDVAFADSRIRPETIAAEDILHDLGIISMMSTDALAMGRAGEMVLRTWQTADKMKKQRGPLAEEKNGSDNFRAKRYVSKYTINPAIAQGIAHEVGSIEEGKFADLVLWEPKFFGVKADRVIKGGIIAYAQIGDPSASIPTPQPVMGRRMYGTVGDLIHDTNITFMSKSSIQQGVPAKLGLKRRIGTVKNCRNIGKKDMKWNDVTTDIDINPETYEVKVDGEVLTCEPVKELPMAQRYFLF
smiles,measurement,setting,value
CC(=O)NO [acetohydroxamate],Ki,[1],5.7 ± 0.4 µM
same,Ki,[2],3.3 ± 0.4 µM
same,whole-cell ureolysis reduced to,[3],42 ± 6%
